Measured values as given in US8889688B2, “Piperazines as antimalarial agents” (Actelion Pharmaceuticals Ltd., priority 2011, dated 2014).
Read-outs that look alike come from different tables or passages of the source.

Test system: erythrocytic stages of P. falciparum NF54
Experiment: Plasmodium falciparum in vitro assay, [3H] hypoxanthine incorporation
Format: cell-based
Settings: P. falciparum NF54 in human red blood cells, 48 h + 24 h incubation
Protocol: In Vitro Antimalarial Activity: Plasmodium falciparum In Vitro Assay In vitro activity against erythrocytic stages of P. falciparum in human red blood cells is determined using a [^3H] hypoxanthine incorporation assay. […] Thereafter, the parasite cultures incubated in screening medium containing washed human red blood cells at 2.5% hematocrit (0.3% parasitemia) are added to the serially diluted compounds and incubated in a humidifying atmosphere at 37° C., 4% CO2, 3% O2, and 93% N2. After 48 h, [^3H] hypoxanthine (0.5 μCi) is added to each well of a plate. The plates are incubated for a further 24 h under the same conditions then harvested with a Betaplate cell harvester (Wallac) and washed with distilled water. The dried filters are inserted into a plastic foil with 10 mL of scintillation fluid, and counted in a Betaplate liquid scintillation counter. IC50 values are calculated from sigmoidal inhibition curves using Microsoft Excel.

[1] = Plasmodium falciparum, Erythrocyte, 72 h, screening medium with Albumax (5 g/L), read-out: IC50 on NF54 (with Albumax)
[2] = Plasmodium falciparum, Erythrocyte, 72 h, screening medium with human serum (50% final concentration), read-out: IC50 on NF54 (with 50% Serum)

SMILES | IC50 [1] [nM] | IC50 [2] [nM] | IC50 (screening medium with Albumax (5 g/L), read-out: IC50 on NF54 (with Albumax)) [nM] | IC50 (screening medium with human serum (50% final concentration), read-out: IC50 on NF54 (with 50% Serum)) [nM]
CC(=O)N1CCN(c2ccc(CN(C(=O)C=Cc3ccc(C(F)(F)F)cc3)[C@@H](Cc3ccccc3)C(=O)N3CCN(Cc4ccc(N(C)C)cc4)CC3)cc2)CC1 [Example 11, (S)-N-[4-(4-Acetyl-piperazin-1-yl)-benzyl]-N-{1-benzyl-2-[4-(4-dimethylamino-benzyl)-piperazin-1-yl]-2-oxo-ethyl}-3-(4-trifluoromethyl-phenyl)-acrylamide] | 4 | 21 | – | –
CC(=O)N1CCN(c2ccc(CN(C(=O)C=Cc3ccc(C(F)(F)F)nc3)[C@@H](Cc3ccccc3)C(=O)N3CCN(Cc4ccc(N(C)C)cc4)CC3)cc2)CC1 [Example 12, (S)-N-[4-(4-Acetyl-piperazin-1-yl)-benzyl]-N-{1-benzyl-2-[4-(4-dimethylamino-benzyl)-piperazin-1-yl]-2-oxo-ethyl}-3-(6-trifluoromethyl-pyridin-3-yl)-acrylamide] | 17 | 74 | – | –
COc1ccc(C=CC(=O)N(Cc2ccc(N3CCN(C(C)=O)CC3)cc2)[C@@H](Cc2ccccc2)C(=O)N2CCN(Cc3ccc(N(C)C)cc3)CC2)cn1 [Example 13, (S)-N-[4-(4-Acetyl-piperazin-1-yl)-benzyl]-N-{1-benzyl-2-[4-(4-dimethylamino-benzyl)-piperazin-1-yl]-2-oxo-ethyl}-3-(6-methoxy-pyridin-3-yl)-acrylamide] | 12 | 46 | – | –
CCOc1ccc(C=CC(=O)N(Cc2ccc(N3CCN(C(C)=O)CC3)cc2)[C@@H](Cc2ccccc2)C(=O)N2CCN(Cc3ccc(N(C)C)cc3)CC2)cn1 [Example 14, (S)-N-[4-(4-Acetyl-piperazin-1-yl)-benzyl]-N-{1-benzyl-2-[4-(4-dimethylamino-benzyl)-piperazin-1-yl]-2-oxo-ethyl}-3-(6-ethoxy-pyridin-3-yl)-acrylamide] | 3.7 | 20 | – | –
CC(=O)Nc1ccc(C=CC(=O)N(Cc2ccc(N3CCN(C(C)=O)CC3)cc2)[C@@H](Cc2ccccc2)C(=O)N2CCN(Cc3ccc(N(C)C)cc3)CC2)cc1 [Example 17, (S)-3-(4-Acetylamino-phenyl)-N-[4-(4-acetyl-perazin-1-yl)-benzyl]-N-{1-benzyl-2-[4-(4-dimethylamino-benzyl)-piperazin-1-yl]-2-oxo-ethyl}-acrylamide] | – | – | 4.3 | 39
CC(=O)N1CCN(c2ccc(CN(C(=O)C=Cc3ccc(S(C)(=O)=O)cc3)[C@@H](Cc3ccccc3)C(=O)N3CCN(Cc4ccc(C#N)cc4)CC3)cc2)CC1 [Example 26, (S)-N-[4-(4-Acetyl-piperazin-1-yl)-benzyl]-N-{1-benzyl-2-[4-(4-cyano-benzyl)-piperazin-1-yl]-2-oxo-ethyl}-3-(4-methanesulfonyl-phenyl)-acrylamide] | 18 | 33 | – | –
COc1ccc(CN2CCN(C(=O)[C@H](Cc3ccccc3)N(Cc3ccc(N4CCN(C(C)=O)CC4)cc3)C(=O)C=Cc3ccc(C(F)(F)F)cc3)CC2)cc1 [Example 63, (S)-N-[4-(4-Acetyl-piperazin-1-yl)-benzyl]-N-{1-benzyl-2-[4-(4-methoxy-benzyl)-piperazin-1-yl]-2-oxo-ethyl}-3-(4-trifluoromethyl-phenyl)-acrylamide] | 3.2 | 17.8 | – | –
CC(=O)N1CCN(c2ccc(CN(C(=O)C=Cc3ccc(C(F)(F)F)cc3)[C@@H](Cc3ccccc3)C(=O)N3CCN(Cc4ccc([N+](=O)[O-])cc4)CC3)cc2)CC1 [Example 64, (S)-N-[4-(4-Acetyl-piperazin-1-yl)-benzyl]-N-{1-benzyl-2-[4-(4-nitro-benzyl)-piperazin-1-yl]-2-oxo-ethyl}-3-(4-trifluoromethyl-phenyl)-acrylamide] | 3.5 | 43 | – | –
CC(=O)N1CCN(c2ccc(CN(C(=O)C=Cc3ccccc3)[C@@H](Cc3ccccc3)C(=O)N3CCN(Cc4ccc(N(C)C)cc4)CC3)cc2)CC1 [Example 66, (S)-N-[4-(4-Acetyl-piperazin-1-yl)benzyl]-N-{1-(4-(4-(dimethylamino)benzyl)piperazin-1-yl)-1-oxo-3-phenylpropan-2-yl}cinnamamide] | 24.6 | 113 | – | –
CC(=O)N1CCN(c2ccc(CN(C(=O)C=Cc3ccc(C)cc3)[C@@H](Cc3ccccc3)C(=O)N3CCN(Cc4ccc(N(C)C)cc4)CC3)cc2)CC1 [Example 67, (S)-N-[4-(4-Acetyl-piperazin-1-yl)benzyl]-N-{1-[4-(4-(dimethylamino)benzyl)piperazin-1-yl]-1-oxo-3-phenylpropan-2-yl}-3-(p-tolyl)acrylamide] | < 3.1 | 17.5 | – | –
CC(=O)c1ccc(C=CC(=O)N(Cc2ccc(N3CCN(C(C)=O)CC3)cc2)[C@@H](Cc2ccccc2)C(=O)N2CCN(Cc3ccc(N(C)C)cc3)CC2)cc1 [Example 70, (S)-3-(4-Acetyl-phenyl)-N-[4-(4-acetyl-piperazin-1-yl)benzyl]-N-{1-(4-(4-(dimethylamino)benzyl)piperazin-1-yl)-1-oxo-3-phenylpropan-2-yl}acrylamide] | < 3.1 | 16 | – | –

More lines, main results first:

IC50 [1] [nM] | IC50 [2] [nM] | SMILES | IC50 (screening medium with Albumax (5 g/L), read-out: IC50 on NF54 (with Albumax)) [nM] | IC50 (screening medium with human serum (50% final concentration), read-out: IC50 on NF54 (with 50% Serum)) [nM]
3.2 | 28 | CC(=O)Nc1ccc(C=CC(=O)N(Cc2ccc(N3CCN(C(C)=O)CC3)cc2)[C@@H](Cc2ccccc2)C(=O)N2CCN(Cc3ccc(Cl)cc3)CC2)cc1 [Example 37, (S)-3-(4-Acetylamino-phenyl)-N-[4-(4-acetyl-piperazin-1-yl)-benzyl]-N-{1-benzyl-2-[4-(4-chloro-benzyl)-piperazin-1-yl]-2-oxo-ethyl}-acrylamide] | – | –
10.7 | 29.8 | CC(=O)N1CCN(c2ccc(CN(C(=O)C=Cc3ccc(C(F)(F)F)nc3)[C@@H](Cc3ccccc3)C(=O)N3CCN(Cc4ccc(N(C)CCO)cc4)CC3)cc2)CC1 [Example 51, (S)-N-[4-(4-Acetyl-piperazin-1-yl)-benzyl]-N-[1-benzyl-2-(4-{4-[(2-hydroxy-ethyl)-methyl-amino]-benzyl}-piperazin-1-yl)-2-oxo-ethyl]-3-(6-trifluoromethyl-pyridin-3-yl)-acrylamide] | – | –
2.8 | 14 | CC(=O)N1CCN(c2ccc(CN(C(=O)C=Cc3ccc(C(F)(F)F)cc3)[C@@H](Cc3ccccc3)C(=O)N3CCN(Cc4ccc(OC(C)C)cc4)CC3)cc2)CC1 [Example 65, (S)-N-[4-(4-Acetyl-piperazin-1-yl)-benzyl]-N-{1-benzyl-2-[4-(4-isopropoxy-benzyl)-piperazin-1-yl]-2-oxo-ethyl}-3-(4-trifluoromethyl-phenyl)-acrylamide] | – | –
0.7 | 8 | CCCc1ccc(C=CC(=O)N(Cc2ccc(N3CCN(C(C)=O)CC3)cc2)[C@@H](Cc2ccccc2)C(=O)N2CCN(Cc3ccc(N(C)C)cc3)CC2)cc1 [Example 68, (S)-N-[4-(4-Acetyl-piperazin-1-yl)benzyl]-N-{1-(4-(4-(dimethylamino)benzyl)piperazin-1-yl)-1-oxo-3-phenylpropan-2-yl}-3-(4-propylphenyl)acrylamide] | – | –
< 3.1 | 17 | COc1ccc(C=CC(=O)N(Cc2ccc(N3CCN(C(C)=O)CC3)cc2)[C@@H](Cc2ccccc2)C(=O)N2CCN(Cc3ccc(N(C)C)cc3)CC2)cc1 [Example 69, (S)-N-[4-(4-Acetyl-piperazin-1-yl)benzyl]-N-{1-(4-(4-(dimethylamino)benzyl)piperazin-1-yl)-1-oxo-3-phenylpropan-2-yl}-3-(4-methoxyphenyl)acrylamide] | – | –
